Tests used:
[1] = system: Progesterone receptor (Mesocricetus auratus); assay: Percent inhibition of [3H]- progesterone binding to Syrian golden hamster uterine cytosol progesterone receptor, at 10e-5 M compound concentration; conditions: at 10 µM
[2] = system: Progesterone receptor (Mesocricetus auratus); assay: Percent inhibition of [3H]- progesterone binding to Syrian golden hamster uterine cytosol progesterone receptor, at 10e-8 M compound concentration; conditions: at 0.01 µM
[3] = system: Progesterone receptor (Mesocricetus auratus); assay: Percent inhibition of [3H]- progesterone binding to Syrian golden hamster uterine cytosol progesterone receptor, at 10e-7 M compound concentration; conditions: at 0.1 µM
[4] = system: Progesterone receptor (Mesocricetus auratus); assay: Percent inhibition of [3H]- progesterone binding to Syrian golden hamster uterine cytosol progesterone receptor, at 10e-6 M compound concentration; conditions: at 1 µM
[5] = system: Progesterone receptor (Mesocricetus auratus); assay: Percent inhibition of [3H]- progesterone binding to Syrian golden hamster uterine cytosol progesterone receptor, at 10e-9 M compound concentration; conditions: at 0.001 µM
[6] = biological target: T1, Progesterone receptor (Oryctolagus cuniculus) (UniProt P06186); assay: Percent inhibition of [3H]- progesterone binding to rabbit uterine progesterone receptor, at 10e-9 M compound concentration; conditions: at 0.001 µM
T1 sequence (whole entry): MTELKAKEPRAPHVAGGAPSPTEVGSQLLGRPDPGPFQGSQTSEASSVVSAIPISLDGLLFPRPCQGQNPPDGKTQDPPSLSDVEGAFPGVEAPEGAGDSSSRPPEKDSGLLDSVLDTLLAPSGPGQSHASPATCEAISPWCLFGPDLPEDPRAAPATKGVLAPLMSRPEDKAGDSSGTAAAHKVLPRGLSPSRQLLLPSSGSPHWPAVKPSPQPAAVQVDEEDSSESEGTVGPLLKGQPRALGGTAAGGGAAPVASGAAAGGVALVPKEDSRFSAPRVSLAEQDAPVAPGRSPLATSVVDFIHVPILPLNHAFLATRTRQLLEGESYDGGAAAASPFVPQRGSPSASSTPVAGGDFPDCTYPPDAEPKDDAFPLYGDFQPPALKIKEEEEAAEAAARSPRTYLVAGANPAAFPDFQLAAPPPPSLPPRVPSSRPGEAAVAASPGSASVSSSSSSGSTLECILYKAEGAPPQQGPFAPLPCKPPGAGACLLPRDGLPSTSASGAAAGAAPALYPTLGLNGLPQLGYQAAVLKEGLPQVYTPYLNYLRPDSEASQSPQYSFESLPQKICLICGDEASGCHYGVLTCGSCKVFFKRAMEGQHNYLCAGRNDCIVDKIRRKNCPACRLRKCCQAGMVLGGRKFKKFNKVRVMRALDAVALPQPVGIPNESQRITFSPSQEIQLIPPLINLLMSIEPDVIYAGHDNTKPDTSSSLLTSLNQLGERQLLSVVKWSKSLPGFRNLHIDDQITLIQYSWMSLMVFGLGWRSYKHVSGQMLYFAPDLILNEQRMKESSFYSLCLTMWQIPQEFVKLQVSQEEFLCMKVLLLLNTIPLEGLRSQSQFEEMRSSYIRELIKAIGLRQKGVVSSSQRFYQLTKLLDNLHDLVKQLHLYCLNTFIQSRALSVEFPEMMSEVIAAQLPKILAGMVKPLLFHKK

Cricetinae gen. sp. [7] = assay: Activity against pregnancy-interceptive activity in Syrian golden hamsters, when administered, at a dose of 13.85 mmol/kg; type: functional
[8] = biological target: T1, Progesterone receptor (Oryctolagus cuniculus); assay: Percent inhibition of [3H]- progesterone binding to rabbit uterine progesterone receptor, at 10e-6 M compound concentration; conditions: at 1 µM
[9] = biological target: T1, Progesterone receptor (Oryctolagus cuniculus); assay: Percent inhibition of [3H]- progesterone binding to rabbit uterine progesterone receptor, at 10e-8 M compound concentration; conditions: at 0.01 µM
[10] = biological target: T1, Progesterone receptor (Oryctolagus cuniculus); assay: Percent inhibition of [3H]- progesterone binding to rabbit uterine progesterone receptor, at 10e-5 M compound concentration; conditions: at 10 µM
[11] = biological target: T1, Progesterone receptor (Oryctolagus cuniculus); assay: Percent inhibition of [3H]- progesterone binding to rabbit uterine progesterone receptor, at 10e-7 M compound concentration; conditions: at 0.1 µM
Cricetinae gen. sp. [12] = assay: Activity against pregnancy-interceptive activity in Syrian golden hamsters, when administered, at a dose of 9.31 mmol/kg; type: functional
Cricetinae gen. sp. [13] = assay: Activity against pregnancy-interceptive activity in Syrian golden hamsters, when administered, at a dose of 26.88 mmol/kg; type: functional
Cricetinae gen. sp. [14] = assay: Activity against pregnancy-interceptive activity in Syrian golden hamsters, when administered, at a dose of 9.54 mmol/kg; type: functional
Cricetinae gen. sp. [15] = assay: Activity against pregnancy-interceptive activity in Syrian golden hamsters, when administered, at a dose of 7.97 mmol/kg; type: functional, Cricetulus griseus
Cricetinae gen. sp. [16] = assay: Activity against pregnancy-interceptive activity in Syrian golden hamsters, when administered, at a dose of 8.40 mmol/kg; type: functional, Cricetulus griseus

SMILES | inhibition [1] [%] | inhibition [2] [%] | inhibition [3] [%] | inhibition [4] [%] | inhibition [5] [%] | inhibition [6] [%] | Activity (Cricetinae gen. sp. [7]) | inhibition [8] [%] | inhibition [9] [%] | inhibition [10] [%] | inhibition [11] [%] | Activity (Cricetinae gen. sp. [12]) | Activity (Cricetinae gen. sp. [13]) [mean] | Activity (Cricetinae gen. sp. [14]) | Activity (Cricetinae gen. sp. [15]) | Activity (Cricetinae gen. sp. [16])
COC(=O)C1=C(C)N=C(C)/C(=C(\O)OC)C1c1ccc(N)c([N+](=O)[O-])c1 (stereo unspecified) | 10 | 0 | 5 | 5 | 0 | 0 | 7 | 1 | 0 | 5 | 0 | – | – | – | – | –
COC(=O)C1=C(C)N=C(C)/C(=C(\O)OC)C1c1cc2cc(-c3c(C)oc(C)c3C(=O)OC)ccc2nc1Cl (stereo unspecified) | 17 | 10 | 9 | 20 | 5 | 0 | – | 10 | 0 | 8 | 5 | 1.8 | – | – | – | –
COC(=O)Nc1nc2cc(C3C(C(=O)OC)=C(C)N=C(C)/C3=C(/O)OC)ccc2n1Cc1ccccc1 (stereo unspecified) | – | – | – | – | – | – | – | – | – | – | – | – | 3.58 | – | – | –
COC(=O)C1=C(C)N=C(C)/C(=C(/O)OC)C1c1ccc(C2C(C(=O)OC)=C(C)N=C(C)/C2=C(/O)OC)cc1 (stereo unspecified) | 34 | 13 | 15 | 31 | 9 | 4 | – | 26 | 10 | 36 | 16 | – | – | 6.2 | – | –
COC(=O)C1=C(C)N=C(C)/C(=C(/O)OC)C1c1ccc2nc(-c3ccc(OC)c(OC)c3)n(Cc3ccc(OC)c(OC)c3)c2c1 (stereo unspecified) | 16 | 5 | 5 | 10 | 2 | 0 | – | 10 | 0 | 8 | 8 | – | – | – | 4 | –
COC(=O)C1=C(C)N=C(C)/C(=C(/O)OC)C1c1ccc2nc(-c3ccc4c(c3)OCO4)n(Cc3ccc4c(c3)OCO4)c2c1 (stereo unspecified) | 16 | 5 | 8 | 15 | 0 | 0 | – | 12 | 0 | 18 | 5 | – | – | – | – | 4.4
